Experiment: activity coefficient (dimensionless); of the first substance listed, at infinite dilution; xn = mol fraction of the nth substance listed
Conditions: Liquid, x1 = 0

CC(C)O [propan-2-ol] + O
Conditions	activity coefficient
283.15 K, Relative Headspace Analysis	5.37
293.15 K, Relative Headspace Analysis	6.89
308.15 K, Relative Headspace Analysis	8.84
333.15 K, Rayleigh distallation	11.8
353.15 K, circulation equilibrium still	12.5
363.15 K, circulation equilibrium still	12.9
371.15 K, circulation equilibrium still	13.1

CC(C)CO [2-methyl-1-propanol] + O
Conditions	activity coefficient
273.35 K, Relative Headspace Analysis	31.6
283.15 K, Relative Headspace Analysis	36.8
293.15 K, headspace analysis	44.3
298.15 K, Relative Headspace Analysis	47.4
303.15 K, headspace analysis	50.3
313.15 K, headspace analysis	54.1
323.15 K, headspace analysis	57.6
333.15 K, headspace analysis	58.3
363.15 K, circulation equilibrium still	54.3
371.15 K, circulation equilibrium still	52.2

CCC(C)O (configuration not stated) [butan-2-ol] + O
Conditions	activity coefficient
273.35 K, Relative Headspace Analysis	13.7
283.15 K, Relative Headspace Analysis	17.9
293.15 K, Relative Headspace Analysis	22.6
293.15 K, headspace analysis	22.5
303.15 K, headspace analysis	26.8
303.15 K, inert gas stripping	26.8
313.15 K, headspace analysis	31.3
313.15 K, inert gas stripping	30.8
323.15 K, headspace analysis	33.8
323.15 K, inert gas stripping	34.4
333.15 K, headspace analysis	36.9
333.15 K, inert gas stripping	35.7
343.15 K, Rayleigh distallation	38
353.15 K, Rayleigh distallation	38.4
363.15 K, circulation equilibrium still	40.4
371.15 K, circulation equilibrium still	37.8

CC(C)(C)O [2-methylpropan-2-ol] + O
Conditions	activity coefficient
299.15 K, headspace analysis	13.1
303.15 K, headspace analysis	14.4
313.15 K, headspace analysis	16.9
323.15 K, Rayleigh distallation	19.9
333.15 K, Rayleigh distallation	21.8
343.15 K, Rayleigh distallation	23.5
353.15 K, circulation equilibrium still	25.4
363.15 K, circulation equilibrium still	26.3
371.15 K, circulation equilibrium still	27.4

From the NIST ThermoML archive (doi:10.1021/je600567z)
